Measured values reported in US20090325863A1, “Somatostatin analogs and IGF-I inhibition for breast cancer prevention” (priority 2008, published 2009).
“Also recorded” adds a separate entry of the source. Marks after values point to notes of the source that are not given here. *1 amine or outer side, *2 acyl side, *3 side chain or, on linkers, in order; H or OH if unused. Where a SMILES comes first, the peptide text is derived from it. Side-chain parts run from the residue outwards. [ ]: non-standard residue; d: D form. The star is where a group is joined. Ethylenediamine = C(CN[*:2])N[*:1]; Hyp = O=C(O)[C@@H]1C[C@@H](O)CN1; Phg = N[C@H](C(=O)O)c1ccccc1; CO = O=C([*:1])[*:2]; Bn = c1ccc(C*)cc1

Assays:
[1] = tested on: mast cells in mammary glands; assay: Mast cells and mammary development in normally developing rats treated from day 21 to 28; format: in vivo, rat; conditions: for Mast cell density stromal / Mast cell density around glands: 28 day old rats treated from day 21, 3 animals; for Mast cell density stromal: normal 3.5 ± 0.8; for Mast cell density around glands: normal 11.5 ± 1.6
Text: (§1) We have found for the first time that mast cells play a role in normal mammary development. Mast cells appear around developing mammary gland structures in rats. […] The same animals when they were 21 days old were given SOM230. […] The mast cells are found directly around the developing glands in the stromal compartment.
Overall, the number of mast cells/mm^2 was reduced by SOM230 treatment, as per TABLE 7 below. Mast cells surrounding glands and those elsewhere in the stromal compartment were both reduced.

[2] = tested on: Ki67 positive cells in mammary gland; assay: Cell proliferation by Ki67 immunostaining in mammary gland, hGH+E2 model; format: in vivo, rat; conditions: for % Ki67 positive cells, Normal gland / % Ki67 positive cells, DH structure Mod + mild: 3 animals; for % Ki67 positive cells, Normal gland: hGH + E2 control 5.1 ± 0.1; for % Ki67 positive cells, DH structure Mod + mild: hGH + E2 control 22.5 ± 1.6 (P < 0.05); for cell proliferation / Ki67 staining (in words): hGH+E2 model versus hGH+E2 control
Experimental: The histological sections were also analyzed for cell proliferation by Ki67 immunostaining and for apoptosis by TUNEL. Twenty five percent of cells in areas of florid hyperplasia were stained for Ki67. […] When the glands were normal and not hyperplastic, only 5.1% stained for Ki67. […] The immunostaining for Ki67 can be seen in FIG. 3.
We next determined the effects of the various treatment regimens on cell proliferation as assessed by Ki67 immunostaining. […] The percent Ki67 positive cells is depicted in TABLE 4 below.

[3] = tested on: mammary hyperplasia induced by hGH and E2; assay: Mammary hyperplasia model induced by hGH and E2, counts in histological sections; format: in vivo, rat; conditions: for Mild# (mild hyperplasia): GH + E2 control 4.2 ± 0.6, E2 1.9 ± 0.2; for Moderate# (moderate hyperplasia): GH + E2 control 5.0 ± 0.7, E2 0; for Florid# (florid hyperplasia): GH + E2 control 9.6 ± 0.1, E2 0; for Total# (total number of glands): hypophysectomized, oophorectomized female rats, hGH 600 μg + E2, 7 days, GH + E2 control 71.9 ± 5.4, E2 42.2 ± 1.4; for Florid#: GH + E2 control 10 ± 0.7
Text: To test whether SOM230, a drug that inhibits IGF-I action on the breast, was effective, we implemented a model of hyperplasia and then determined whether the hyperplasia could be inhibited by SOM230. We administered human growth hormone (600 mcg in alzet pumps) for a week, and gave this together with estradiol (an estrogen). At the end of 7 days florid hyperplasia developed. Mammary hyperplasia was modeled by treating hypophysectomized, oophorectomized female rats with high doses human growth hormone (hGH) (600 μg in Alzet pumps) and follicular phase concentrations of estradiol (E2) administered in silastic capsules for 7 days. In the absence of hGH, these animals would not undergo mammary development. In animals receiving E2 alone, there was virtually no hyperplasia. When hGH was added to E2 there were more glands (42.2±1.4 vs. 71.9±5.4, E2 vs. E2+hGH, respectively). There was no florid hyperplasia with E2 treatment. When hGH was given also, 26.6% of the glands were hyperplastic, with 50% of those being floridly hyperplastic, 7% moderate hyperplasia and 5.9% mild hyperplasia. […] This is shown in histological sections (FIG. 1), graphically (FIG. 2) and in tabular form below (TABLE 1).
Background: Antiestrogens or aromatase inhibitors are used for breast cancer chemoprevention. These treatments cause unpleasant side effects including hot flashes and vaginal dryness. We have previously shown that IGF-I is required to permit estrogen and progesterone action in the mammary gland. […] Menopausal symptoms would not likely to occur with SOM230 since estrogen is not lowered. Material and Methods: We have approached this issue in several ways. 1) We developed a model of hyperplasia in hypophysectomized and oophorectomized female rats. Hyperplasia was induced by treatment with 600 mcg hGH and follicular phase concentrations of estradiol. Hyperplasia was assessed histologically in sections of mammary gland. 2) To assess translatability to humans we assessed cell proliferation and apoptosis in normal human breast from reduction mammoplasties and samples of usual hyperplasia. 3) We also determined availability of SST receptors in samples of atypical ductal hyperplasia and DCIS, and 4) We have begun to determine whether SOM230 will prevent hyperplasia in humans at risk for breast cancer as it does in rats.
The degree of hyperplasia was analyzed in 3 histological sections at different levels in 3 test animals given GH+E2. The different types of hyperplasia were counted. For example, the total mean number of ducts was 88.3. Of those ducts, there were 19.7 or 22.3% of total ducts that were hyperplastic. The breakdown was a mean of 10 ducts with florid hyperplasia (lumen is distended and mostly obliterated by epithelial cells), a mean of 5.3 ducts with moderate hyperplasia (an increase in cell layers to >4 cells thick), and a mean of 4.4 characterized as mild hyperplasia (no more than 4 cell thickness).
There were 4 additional treatment groups and one E2 treated control group.

SSTR-5 = SSTR-5 (Homo sapiens, UniProt P35346); conditions: cited from earlier work
[4] = tested on: pYIRS-1 (phosphorylated IRS-1); assay: pYIRS-1 staining in glands and mast cells of normally developing rats; format: in vivo, rat; conditions: 28 day old female rats treated from day 21
Text: as §1
That these mast cells are directly stimulated by IGF-I is supported by the observation that phosphorylated IRS-1 was reduced in mast cells on exposure to SOM230. The action of SOM230 in mammary gland is therefore one of IGF-I action inhibition. […] The one on the right panel is from an animal treated with SOM230. Not only was pYIRS-I reduced in glands but mast cells were reduced as well.

VEGF = VEGF immunostaining in mammary glands of normally developing rats; format: in vivo, rat; conditions: 28 day old rats treated from day 21; gland cells and mast cells
Text: They were found in both gland cells and mast cells.

[5] = tested on: pYIRS-1 (phosphorylated IRS-1), product of IGF-I action; assay: Immunostaining for phosphorylated IRS-1 in mammary gland, hGH+E2 model; format: in vivo, rat; conditions: hGH+E2 treated animals; staining most intense with hGH+E2
Text: FIG. 12 depicts immunostaining for pYIRS-1 (phosphorylated IRS-1) in a representative E2 treated control (upper left), an hGH+E2 treated animal (upper right), an hGH+E2+SOM230 treated animal (lower left) and an hGH+E2+tamoxifen treated animal (lower right). The intensity of staining parallels IGF-I action as phosphorylated IRS-1 is a product of IGF-I action. In this study, staining (brown color) was most intense in response to hGH+E2 and was inhibited by both SOM230 and tamoxifen. […] This reflection of inhibition of IGF-I activity also supports the greater inhibitory effect of SOM230 over that of tamoxifen.

Chain of SSTR-5 (P35346 whole entry, species assumed): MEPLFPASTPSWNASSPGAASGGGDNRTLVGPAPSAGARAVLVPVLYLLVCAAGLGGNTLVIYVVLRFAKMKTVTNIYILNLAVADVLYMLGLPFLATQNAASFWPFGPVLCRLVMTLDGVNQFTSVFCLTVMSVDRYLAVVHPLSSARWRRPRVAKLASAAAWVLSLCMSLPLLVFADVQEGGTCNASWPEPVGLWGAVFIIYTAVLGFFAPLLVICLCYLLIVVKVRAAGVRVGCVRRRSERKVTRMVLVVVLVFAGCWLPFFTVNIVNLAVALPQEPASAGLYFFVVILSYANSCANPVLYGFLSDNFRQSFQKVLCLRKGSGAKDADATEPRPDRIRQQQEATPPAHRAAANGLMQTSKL

Q: What does the source list for NCCCC[C@@H]1NC(=O)[C@@H](Cc2c[nH]c3ccccc23)NC(=O)[C@H](c2ccccc2)NC(=O)[C@@H]2C[C@@H](OC(=O)NCCN)CN2C(=O)[C@H](Cc2ccccc2)NC(=O)[C@H](Cc2ccc(OCc3ccccc3)cc2)NC1=O [SOM230] (cyclo([Hyp]([CO-Ethylenediamine])[Phg][dW]KY(Bn)F))?
A: Mast cell density stromal [1]: reduced; Mast cell density stromal ([1]; listed as SOM): 1.1 ± 0.3^d MC#/1 mm^2; Mast cell density around glands [1]: reduced; Mast cell density around glands ([1]; listed as SOM): 3.7 ± 0.7^b MC#/1 mm^2; micro vessel density ([1]; normally developing glands versus SOM230 treated): greater in glands that were developing normally; mammary development ([1]; normally developing rats treated from day 21 to 28): inhibit mammary development; % Ki67 positive cells, Normal gland [2]: no significant reduction; % Ki67 positive cells, Normal gland ([2]; listed as SOM): 4.3 ± 0.4%; % Ki67 positive cells, DH structure Mod + mild [2]: 14.2%; % Ki67 positive cells, DH structure Mod + mild ([2]; listed as SOM): 14.2 ± 2.5%; cell proliferation / Ki67 staining (in words) [2]: reduction in cell proliferation; also recorded: decrease in Ki67 staining; cell proliferation / Ki67 staining (in words) ([2]; listed as SOM 230): remarkable decrease in cell division; number of areas of florid hyperplasia ([3]; Example 3, from 18.9±1.3 with hGH and E2 (p<0.001)): 7.5±0.5; Mild# (mild hyperplasia) ([3]; Table 1, 7 days): 3.0±0.4; Mild# (mild hyperplasia) ([3]; Table 1, 7 days, listed as SOM): 3.0 ± 0.4; Moderate# (moderate hyperplasia) ([3]; Table 1, 7 days): 3.8±0.4; Moderate# (moderate hyperplasia) ([3]; Table 1, 7 days, listed as SOM): 3.8 ± 0.4; Florid# (florid hyperplasia) ([3]; Table 1, 7 days): 0.8±0.2; Florid# (florid hyperplasia) ([3]; Table 1, 7 days, listed as SOM): 0.8 ± 0.2; DH# (hyperplastic structures) ([3]; Table 1, 7 days, GH + E2 control 18.9 ± 1.3, E2 1.9 ± 0.2): 7.5 ± 0.5^b; Total# (total number of glands) ([3]; Table 1): 46.0±2.8; Total# (total number of glands) ([3]; Table 1, listed as SOM): 46.0 ± 2.8; Total# ([3]; Table 3, SOM230 30 mcg/h/kg, Octreotide 30 mcg/hr/kg, Tamoxifen 30 mg/21 day release pellet, GH + E2 control 88.3 ± 6.3): 61.4 ± 7.0; Mild# ([3]; Table 3, same doses, GH + E2 control 4.4 ± 0.6): 3.3 ± 0.3; Moderate# ([3]; Table 3, same doses, GH + E2 control 5.3 ± 0.6): 3.8 ± 0.4; Florid# ([3]; Table 3, same doses): 1.7; Florid# ([3]; Table 3, same doses, listed as SOM): 1.7 ± 0.6; DH# ([3]; Table 3, same doses, GH + E2 control 19.7 ± 1.5): 8.8 ± 0.7^b; hyperplasia / breast hyperplastic lesions (in words) ([3]; given together with hGH and estradiol, 7 days): hyperplasia was significantly inhibited; also recorded: reduction in the number and size of breast hyperplastic lesions; also recorded: reduction in hyperplasia; affinity for SSTR-5 (SSTR-5): has affinity; pYIRS-1 in glands and mast cells [4]: inhibited; also recorded: reduced; expression of VEGF (immunostaining) (VEGF): reduced expression; intensity of pYIRS-1 immunostaining [5]: inhibited
